The record followed here is PMC7646200 (Xenobiotica; the fate of foreign compounds in biological …, 2020).

The test system of data set [1] is human liver cytosol. The following applies: pH 7.4.
The subject of data set [2] is mouse liver cytosol. As to conditions: pH 7.4.
Data set [3] has as its system rat liver cytosol. The following applies: pH 7.4.
Data set [4] relates to pig liver cytosol. As to conditions: pH 7.4.
Data set [5] deals with rabbit liver cytosol. The following applies: pH 7.4.
For data set [6], the system named is dog liver cytosol. As to conditions: pH 7.4.
In data set [7] the test system is sheep liver cytosol. As to conditions: pH 7.4.
For data set [8], the system named is rat liver cytosol. Kind of data set: Sulfonation of 7-hydroxycoumarin derivatives by rat liver cytosol. As to conditions: rat liver cytosol; for sulfonation efficiency, intrinsic clearance (Vmax/Km): rank among species; for Vmax: value (95 % confidence interval).
The subject of data set [9] is pig liver cytosol. Kind of data set: Sulfonation of 7-hydroxycoumarin derivatives by pig liver cytosol. The following applies: pig liver cytosol; value (95 % confidence interval).
In data set [10] the test system is dog liver cytosol. Nature of the data set: Sulfonation of 7-hydroxycoumarin derivatives by dog liver cytosol. As to conditions: dog liver cytosol; for Vmax: value (95 % confidence interval); for intrinsic clearance (Vmax/Km): rank among species.
Data set [11] deals with human liver cytosol. Kind of data set: Sulfonation of 7-hydroxycoumarin derivatives by human liver cytosol. The following applies: human liver cytosol; value (95 % confidence interval).
The test system of data set [12] is mouse liver cytosol. Kind of data set: Sulfonation of 7-hydroxycoumarin derivatives by mouse liver cytosol. The following applies: for Vmax: mouse liver cytosol, value (95 % confidence interval); for sulfonation rate: 10 μM substrate.
For data set [13], the system named is sheep liver cytosol. Nature of the data set: Sulfonation of 7-hydroxycoumarin derivatives by sheep liver cytosol. As to conditions: sheep liver cytosol; for Vmax: value (95 % confidence interval).
In data set [14] the test system is rabbit liver cytosol. Nature of the data set: Sulfonation of 7-hydroxycoumarin derivatives by rabbit liver cytosol. The following applies: rabbit liver cytosol; for sulfonation rate: 10 μM substrate; for Vmax: value (95 % confidence interval).
Data set [15] can be described thus: in vitro. The following applies: male, human, pH 7.4.
The nature of data set [16]: in vitro. As to conditions: DBA/2N/Kuo, mouse, pH 7.4.
Data set [17] is described as follows: in vitro. The following applies: male, Wistar, rat, pH 7.4.
Data set [18] can be described thus: in vitro. As to conditions: female, pig, pH 7.4.
Data set [19] is described as follows: in vitro. As to conditions: female, Dutch belted, rabbit, pH 7.4.
A short description of data set [20]: in vitro. The following applies: both, Beagle, dog, pH 7.4.
Data set [21] is described as follows: in vitro. The following applies: female, sheep, pH 7.4.

The structures appear in SMILES notation.

Regarding `O=c1oc2cc(O)ccc2cc1-c1cccnc1` [compound 13, 3-(4-pyridin-3-yl)-7-hydroxycoumarin], the Michaelis constant (Km) was 6.6 3.7–6.8) μM in the data set with human liver cytosol [1]; 4.3 µM with mouse liver cytosol [2]; 2.3 µM in the data set on rat liver cytosol [3]; 4 µM in the data set with pig liver cytosol [4]; 10 µM in the data set on rabbit liver cytosol [5]; 3.3 µM with dog liver cytosol [6]. Moreover, in the data set with sheep liver cytosol [7], the Km was 6.8 µM. Further, the “sulfonation efficiency, intrinsic clearance (Vmax/Km)” value in the data set on rat liver cytosol [8] was “efficiently”. For the same molecule, the Vmax with pig liver cytosol [9] is 24 (17–31) nmol/(min * g protein); in the data set with dog liver cytosol [10], 360 (330–430) nmol/(min * g protein); in the data set on human liver cytosol [11] it was 59 (53–71) nmol/(min * g protein); in the data set with mouse liver cytosol [12], 160 (110–200) nmol/(min * g protein); with sheep liver cytosol [13], 80 (0–230) nmol/(min * g protein); in the data set with rabbit liver cytosol [14] it was 120 (100–210) nmol/(min * g protein). Also, the sulfonation rate entry in the data set with sheep liver cytosol [13] (10 μM substrate) and in the data set with rabbit liver cytosol [14] was “Slow” throughout.

On to `COc1ccc(-c2cc3ccc(O)cc3oc2=O)cc1` [compound 11, 3-(4-methoxyphenyl)-7-hydroxycoumarin], for which the Km stood at 0.11 µM in the data set “in vitro [15]”; 1.2 µM in the data set “in vitro [16]”; 0.57 µM in the data set “in vitro [17]”; 1.3 µM in “in vitro [18]”; 3.4 µM in the data set “in vitro [19]”; 0.22 µM in the data set “in vitro [20]”. In addition, in “in vitro [21]”, the Michaelis-Menten constant (Km) amounted to 9.8 µM. For the same molecule, the Vmax in the data set on rat liver cytosol [8] is listed as 210 (190–260) nmol/(min * g protein); in the data set with pig liver cytosol [9] it was 5.5 (3.3–7.8) nmol/(min * g protein); in the data set with dog liver cytosol [10], 300 (150–710) nmol/(min * g protein); in the data set with human liver cytosol [11], 18 (12–23) nmol/(min * g protein); with mouse liver cytosol [12], 100 (84–150) nmol/(min * g protein); in the data set with sheep liver cytosol [13], 410 (190–620) nmol/(min * g protein). The Vmax with rabbit liver cytosol [14] is 190 (100–260) nmol/(min * g protein). In addition, in the data set on dog liver cytosol [10], the “intrinsic clearance (Vmax/Km)” value is on record as “highest”.

`O=c1oc2cc(O)ccc2cc1-n1cncn1` [compound 14, 3-(1H-1,2,4-tirazol-1-yl)-7-hydroxycoumarin]: the Michaelis constant (Km) worked out at 4.7 µM in the data set on human liver cytosol [1]; 4.9 µM with mouse liver cytosol [2]; 1.3 µM with rat liver cytosol [3]; 3 µM in the data set with pig liver cytosol [4]; 2.8 µM with rabbit liver cytosol [5]; 3.9 µM in the data set with dog liver cytosol [6]. Moreover, in the data set with sheep liver cytosol [7], the Michaelis-Menten constant (Km) is 12 µM. Besides, the “sulfonation efficiency, intrinsic clearance (Vmax/Km)” value in the data set on rat liver cytosol [8] was “efficiently”. For the same molecule, the Vmax in the data set on rat liver cytosol [8] is given as 230 (200–260) nmol/(min * g protein); with pig liver cytosol [9] it was 39 (13–65) nmol/(min * g protein); in the data set with dog liver cytosol [10], 200 (180–220) nmol/(min * g protein); in the data set with human liver cytosol [11], 69 (55–84) nmol/(min * g protein); with mouse liver cytosol [12], 78 (69–88) nmol/(min * g protein); in the data set with sheep liver cytosol [13], 220 (93–350) nmol/(min * g protein). Besides, the Vmax in the data set with rabbit liver cytosol [14] is 32 (25–39) nmol/(min * g protein). The sulfonation rate entry in the data set on rabbit liver cytosol [14] was “Slow”.

For `Cc1c(C)c2ccc(O)cc2oc1=O` [compound 4, 3,4-dimethyl-7-hydroxycoumarin], the Michaelis constant (Km) in the data set “in vitro [15]” is 24 µM; in the data set “in vitro [16]”, 0.11 µM; in the data set “in vitro [17]” it was 1.1 µM; in “in vitro [18]” it was 6.4 µM; in “in vitro [19]” it was 0.65 µM; in “in vitro [20]”, 0.62 µM. Also, in the data set “in vitro [21]”, the Km amounted to 0.46 µM. Also, the Vmax is reported as 380 (140–620) nmol/(min * g protein) in the data set with rat liver cytosol [8]; 67 (18–120) nmol/(min * g protein) with pig liver cytosol [9]; 330 (250–420) nmol/(min * g protein) in the data set on dog liver cytosol [10]; 210 (0–1300) nmol/(min * g protein) in the data set with human liver cytosol [11]; 17 (14–20) nmol/(min * g protein) in the data set with mouse liver cytosol [12]; 300 (230–370) nmol/(min * g protein) in the data set on sheep liver cytosol [13]. Also, the Vmax in the data set on rabbit liver cytosol [14] was 13 (0–28) nmol/(min * g protein). Also, the “intrinsic clearance (Vmax/Km)” value in the data set on dog liver cytosol [10] is “highest”. Further, the sulfonation rate result in the data set on mouse liver cytosol [12] (female mouse liver cytosol) and in the data set with mouse liver cytosol [12] (male mouse liver cytosol) was “Slow” in each case.
